Test results from patent US8653092B2, “Tetrahydro-pyrido-pyrimidine derivatives” (Novartis AG, priority 2010, dated 2014).
Like-named read-outs stand apart in the source and are kept apart here.

Assays:
PI3K alpha = PI3K alpha (Homo sapiens (Human), UniProt P42336); test: Enzymatic PI3K alpha isoform inhibition (lipid kinase, Kinase-Glo luminescence); assay type: biochemical; settings: enzymatic assay
PI3K delta = PI3K delta (Homo sapiens (Human), UniProt O00329); test: Enzymatic PI3K delta isoform inhibition (lipid kinase, Kinase-Glo luminescence); assay type: biochemical
PI3K delta, sequence (O00329 other isoform, or with tags, fused parts or gaps linker GGGGGG): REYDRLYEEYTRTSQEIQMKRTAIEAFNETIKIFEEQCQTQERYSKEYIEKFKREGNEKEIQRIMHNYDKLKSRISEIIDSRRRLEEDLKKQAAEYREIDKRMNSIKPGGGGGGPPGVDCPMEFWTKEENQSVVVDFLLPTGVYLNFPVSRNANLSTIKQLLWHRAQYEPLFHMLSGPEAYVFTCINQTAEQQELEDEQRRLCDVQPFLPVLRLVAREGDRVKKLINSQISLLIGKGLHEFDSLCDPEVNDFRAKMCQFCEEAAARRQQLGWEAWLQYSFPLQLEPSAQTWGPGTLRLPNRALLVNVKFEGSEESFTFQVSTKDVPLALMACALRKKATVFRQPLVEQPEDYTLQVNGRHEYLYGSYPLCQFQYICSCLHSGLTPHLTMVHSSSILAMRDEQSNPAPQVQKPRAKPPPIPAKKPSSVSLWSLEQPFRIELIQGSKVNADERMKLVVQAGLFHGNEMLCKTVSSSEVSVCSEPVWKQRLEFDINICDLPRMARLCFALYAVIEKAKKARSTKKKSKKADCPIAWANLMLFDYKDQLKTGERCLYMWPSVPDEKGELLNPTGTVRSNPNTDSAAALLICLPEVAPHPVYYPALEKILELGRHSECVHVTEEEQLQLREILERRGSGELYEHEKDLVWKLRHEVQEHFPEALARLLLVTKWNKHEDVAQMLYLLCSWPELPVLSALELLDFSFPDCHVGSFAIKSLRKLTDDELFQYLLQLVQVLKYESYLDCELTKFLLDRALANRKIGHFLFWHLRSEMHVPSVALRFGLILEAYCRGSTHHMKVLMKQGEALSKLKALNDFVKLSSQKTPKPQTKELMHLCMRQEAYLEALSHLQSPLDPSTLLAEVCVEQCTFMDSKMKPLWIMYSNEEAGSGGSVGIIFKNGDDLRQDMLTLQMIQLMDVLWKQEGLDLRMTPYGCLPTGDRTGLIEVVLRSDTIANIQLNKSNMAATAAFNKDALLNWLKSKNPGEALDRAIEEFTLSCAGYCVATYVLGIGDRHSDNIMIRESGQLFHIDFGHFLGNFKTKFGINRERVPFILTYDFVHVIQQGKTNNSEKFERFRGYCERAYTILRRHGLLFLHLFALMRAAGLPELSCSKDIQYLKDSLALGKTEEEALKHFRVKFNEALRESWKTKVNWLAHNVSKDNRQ

PI3K alpha, sequence (P42336 other isoform, or with tags, fused parts or gaps): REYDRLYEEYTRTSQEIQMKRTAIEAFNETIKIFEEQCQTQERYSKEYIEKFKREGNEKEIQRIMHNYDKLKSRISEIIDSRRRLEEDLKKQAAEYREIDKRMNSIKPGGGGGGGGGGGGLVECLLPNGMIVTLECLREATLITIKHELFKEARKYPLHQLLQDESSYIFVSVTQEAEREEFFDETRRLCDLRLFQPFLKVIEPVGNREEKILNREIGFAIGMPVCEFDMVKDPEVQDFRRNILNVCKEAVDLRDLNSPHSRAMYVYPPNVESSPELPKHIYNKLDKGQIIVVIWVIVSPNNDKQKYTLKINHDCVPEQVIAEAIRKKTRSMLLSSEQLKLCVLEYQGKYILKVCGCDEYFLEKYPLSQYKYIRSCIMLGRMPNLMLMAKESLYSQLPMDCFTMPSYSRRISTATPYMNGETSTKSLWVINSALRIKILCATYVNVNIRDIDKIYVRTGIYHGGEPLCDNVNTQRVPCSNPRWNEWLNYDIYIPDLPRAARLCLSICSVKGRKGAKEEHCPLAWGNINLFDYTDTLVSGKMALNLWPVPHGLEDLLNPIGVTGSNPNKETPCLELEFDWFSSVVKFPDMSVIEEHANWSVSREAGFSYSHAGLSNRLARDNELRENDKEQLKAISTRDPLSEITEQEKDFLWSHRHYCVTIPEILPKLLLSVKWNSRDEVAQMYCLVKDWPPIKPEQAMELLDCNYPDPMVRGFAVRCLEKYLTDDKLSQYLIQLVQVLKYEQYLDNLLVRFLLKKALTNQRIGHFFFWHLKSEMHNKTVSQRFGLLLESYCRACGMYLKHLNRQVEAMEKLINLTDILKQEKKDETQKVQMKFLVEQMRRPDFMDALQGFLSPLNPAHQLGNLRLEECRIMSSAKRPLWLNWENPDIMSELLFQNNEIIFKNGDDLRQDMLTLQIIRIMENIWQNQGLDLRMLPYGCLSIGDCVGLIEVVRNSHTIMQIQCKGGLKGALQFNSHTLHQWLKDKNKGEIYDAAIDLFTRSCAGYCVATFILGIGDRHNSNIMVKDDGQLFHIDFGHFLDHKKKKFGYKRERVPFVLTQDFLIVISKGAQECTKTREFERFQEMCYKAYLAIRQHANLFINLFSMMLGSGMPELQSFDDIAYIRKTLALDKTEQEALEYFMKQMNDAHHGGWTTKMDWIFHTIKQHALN

Question: What does the source list for `COc1ncc(N2CCc3ncnc(O[C@H]4CCN(C(=O)c5ccno5)C4)c3C2)cc1C` [Example 34, Isoxazol-5-yl-{(S)-3-[6-(6-Methoxy-5-methyl-pyridin-3-yl)-5,6,7,8-tetrahydro-pyrido[4,3-d]pyrimidin-4-yloxy]-pyrrolidin-1-yl}-methanone]?
Answer: IC50 (PI3K alpha): 1650 nM; IC50 (PI3K delta; enzymatic assay): 14 nM

Question: How did the IC50 (PI3K delta; enzymatic assay) turn out when `COc1ncc(N2CCc3ncnc(N[C@H]4CCN(C(=O)[C@H]5CC[C@H](OC)CC5)C4)c3C2)cc1C(F)(F)F` (single isomer, unassigned) [Example 74] was run?
Answer: 4 nM

Question: What does the source list for `COc1ncc(N2CCc3ncnc(O[C@H]4CCN(C(=O)C5CCOCC5)C4)c3C2)cc1C(F)(F)F` [Example 61, {(S)-3-[6-(6-Methoxy-5-trifluoromethyl-pyridin-3-yl)-5,6,7,8-tetrahydro-pyrido[4,3-d]pyrimidin-4-yloxy]-pyrrolidin-1-yl}-(tetrahydro-pyran-4-yl)-methanone]?
Answer: IC50 (PI3K alpha): 589 nM; IC50 (PI3K delta; enzymatic assay): 12 nM

Question: `COc1ncc(N2CCc3ncnc(O[C@H]4CCN(C(=O)c5cncn5C)C4)c3C2)cc1C(F)(F)F` [Example 93, {(S)-3-[6-(6-Methoxy-5-trifluoromethyl-pyridin-3-yl)-5,6,7,8-tetrahydro-pyrido[4,3-d]pyrimidin-4-yloxy]-pyrrolidin-1-yl}-(3-methyl-3H-imidazol-4-yl)-methanone] was tested. Which IC50 (PI3K alpha) did it give?
Answer: 872 nM

Question: What about the IC50 (PI3K delta; enzymatic assay) of the same compound?
Answer: 24 nM

Question: For `COc1ncc(N2CCc3ncnc(O[C@H]4CCN(C(=O)CC(C)(C)C)C4)c3C2)cc1C(F)(F)F` [Example 62, 1-{(S)-3-[6-(6-Methoxy-5-trifluoromethyl-pyridin-3-yl)-5,6,7,8-tetrahydro-pyrido[4,3-d]pyrimidin-4-yloxy]-pyrrolidin-1-yl}-3,3-dimethyl-butan-1-one], which IC50 (PI3K alpha) is on record?
Answer: 489 nM

Question: And the IC50 (PI3K delta; enzymatic assay)?
Answer: 23 nM

Question: With `COc1ncc(N2CCc3ncnc(O[C@H]4CCN(C(=O)c5cnco5)C4)c3C2)cc1C(F)(F)F` [Example 94, {(S)-3-[6-(6-Methoxy-5-trifluoromethyl-pyridin-3-yl)-5,6,7,8-tetrahydro-pyrido[4,3-d]pyrimidin-4-yloxy]-pyrrolidin-1-yl}-oxazol-5-yl-methanone] as the compound, how does the IC50 (PI3K alpha) read?
Answer: 1710 nM

Question: With `COc1ncc(N2CCc3ncnc(O[C@H]4CCN(C(=O)C5CNC(=O)C5)C4)c3C2)cc1C(F)(F)F` (stereo partly drawn) [Example 43, 4-{(S)-3-[6-(6-Methoxy-5-trifluoromethyl-pyridin-3-yl)-5,6,7,8-tetrahydro-pyrido[4,3-d]pyrimidin-4-yloxy]-pyrrolidine-1-carbonyl}-pyrrolidin-2-one] as the compound, how does the IC50 (PI3K alpha) read?
Answer: 728 nM

Question: And the IC50 (PI3K delta; enzymatic assay)?
Answer: 16 nM

Question: What does the source list for `O=C(C1CCOCC1)N1CC[C@H](Nc2ncnc3c2CN(c2cncc(C(F)(F)F)c2)CC3)C1` [Example 84, (Tetrahydro-pyran-4-yl)-{(S)-3-{6-(5-(trifluoromethyl)pyridin-3-yl)-5,6,7,8-tetrahydropyrido[4,3-d]pyrimidin-4-ylamino)pyrrolidin-1-yl}-methanone]?
Answer: IC50 (PI3K alpha): 58 nM; IC50 (PI3K delta; enzymatic assay): 9 nM

Question: `COc1cc(N2CCc3ncnc(O[C@H]4CCN(C(=O)c5cocn5)C4)c3C2)cnc1OC` [Example 21, {(S)-3-[6-(5,6-Dimethoxy-pyridin-3-yl)-5,6,7,8-tetrahydro-pyrido[4,3-d]pyrimidin-4-yloxy]-pyrrolidin-1-yl}-oxazol-4-yl-methanone] was tested. Which IC50 (PI3K alpha) did it give?
Answer: 320 nM

Question: And the IC50 (PI3K delta; enzymatic assay)?
Answer: 8 nM

Question: Which IC50 (PI3K alpha) does the source give for `COc1ncc(N2CCc3ncnc(O[C@H]4CCN(C(=O)c5cnccn5)C4)c3C2)cc1C(F)(F)F` [Example 52, {(S)-3-[6-(6-Methoxy-5-trifluoromethyl-pyridin-3-yl)-5,6,7,8-tetrahydro-pyrido[4,3-d]pyrimidin-4-yloxy]-pyrrolidin-1-yl}-pyrazin-2-yl-methanone] here?
Answer: 1020 nM

Question: What about the IC50 (PI3K delta; enzymatic assay) of the same compound?
Answer: 46 nM

Question: What does the source list for `COc1ncc(N2CCc3ncnc(N[C@H]4CCN(C(=O)[C@H]5CC[C@H](O)CC5)C4)c3C2)cc1C(F)(F)F` (single isomer, unassigned) [Example 76]?
Answer: IC50 (PI3K alpha): 106 nM; IC50 (PI3K delta; enzymatic assay): 7 nM

Question: `COc1ncc(N2CCc3ncnc(O[C@H]4CCN(C(=O)N(C)CCO)C4)c3C2)cc1C(F)(F)F` [Example 88, (S)-3-[6-(6-Methoxy-5-trifluoromethyl-pyridin-3-yl)-5,6,7,8-tetrahydro-pyrido[4,3-d]pyrimidin-4-yloxy]-pyrrolidine-1-carboxylic acid (2-hydroxy-ethyl)-methyl-amide] was tested. Which IC50 (PI3K alpha) did it give?
Answer: 1340 nM

Question: And the IC50 (PI3K delta; enzymatic assay)?
Answer: 34 nM

Question: For `COc1ncc(N2CCc3ncnc(N[C@H]4CCN(C(=O)c5cn(C)cn5)C4)c3C2)cc1C` [Example 77, -{(S)-3-[6-(6-Methoxy-5-methyl-pyridin-3-yl)-5,6,7,8-tetrahydro-pyrido[4,3-d]pyrimidin-4-ylamino]-pyrrolidin-1-yl}-(1-methyl-1H-imidazol-4-yl)-methanone], which IC50 (PI3K alpha) is on record?
Answer: 1290 nM

Question: And the IC50 (PI3K delta; enzymatic assay)?
Answer: 44 nM

Question: What does the source list for `COc1ncc(N2CCc3ncnc(O[C@H]4CCN(C(=O)c5ccc(=O)[nH]c5)C4)c3C2)cc1C` [Example 19, 5-{(S)-3-[6-(6-Methoxy-5-methyl-pyridin-3-yl)-5,6,7,8-tetrahydro-pyrido[4,3-d]pyrimidin-4-yloxy]-pyrrolidine-1-carbonyl}-1H-pyridin-2-one]?
Answer: IC50 (PI3K alpha): 3060 nM; IC50 (PI3K delta; enzymatic assay): 33 nM

Question: `CCC(=O)N1CC[C@H](Oc2ncnc3c2CN(c2cnc(OC)c(OC)c2)CC3)C1` [Example 4, 1-{(S)-3-[6-(5,6-Dimethoxy-pyridin-3-yl)-5,6,7,8-tetrahydro-pyrido[4,3-d]pyrimidin-4-yloxy]-pyrrolidin-1-yl}-propan-1-one] was tested. Which IC50 (PI3K alpha) did it give?
Answer: 1760 nM

Question: And the IC50 (PI3K delta; enzymatic assay)?
Answer: 33 nM

Question: Which results are given for `COc1ncc(N2CCc3ncnc(O[C@H]4CCN(C(=O)c5ccn(C)n5)C4)c3C2)cc1C#N` [Example 37, 2-Methoxy-5-{4-[(S)-1-(1-methyl-1H-pyrazole-3-carbonyl)-pyrrolidin-3-yloxy]-7,8-dihydro-5H-pyrido[4,3-d]pyrimidin-6-yl}-nicotinonitrile]?
Answer: IC50 (PI3K alpha): 7020 nM; IC50 (PI3K delta; enzymatic assay): 31 nM

Question: What does the source list for `COc1ncc(N2CCc3ncnc(O[C@H]4CCN(C(=O)c5ccncc5)C4)c3C2)cc1C(F)(F)F` [Example 47, {(S)-3-[6-(6-Methoxy-5-trifluoromethyl-pyridin-3-yl)-5,6,7,8-tetrahydro-pyrido[4,3-d]pyrimidin-4-yloxy]-pyrrolidin-1-yl}-pyridin-4-yl-methanone]?
Answer: IC50 (PI3K alpha): 656 nM; IC50 (PI3K delta; enzymatic assay): 25 nM

Question: For `COc1ncc(N2CCc3ncnc(O[C@H]4CCN(C(=O)C5CC(OC)C5)C4)c3C2)cc1C` (stereo partly drawn) [Example 15, (3-Methoxy-cyclobutyl)-{(S)-3-[6-(6-methoxy-5-methyl-pyridin-3-yl)-5,6,7,8-tetrahydro-pyrido[4,3-d]pyrimidin-4-yloxy]-pyrrolidin-1-yl}-methanone], which IC50 (PI3K alpha) is on record?
Answer: 1630 nM

Question: What about the IC50 (PI3K delta; enzymatic assay) of the same compound?
Answer: 14 nM

Question: How did the IC50 (PI3K alpha) turn out when `COc1ncc(N2CCc3ncnc(O[C@H]4CCN(C(=O)C5CCC(=O)N5)C4)c3C2)cc1C(F)(F)F` (stereo partly drawn) [Example 46, 5-{(S)-3-[6-(6-Methoxy-5-trifluoromethyl-pyridin-3-yl)-5,6,7,8-tetrahydro-pyrido[4,3-d]pyrimidin-4-yloxy]-pyrrolidine-1-carbonyl}-pyrrolidin-2-one] was run?
Answer: 803 nM

Question: What about the IC50 (PI3K delta; enzymatic assay) of the same compound?
Answer: 27 nM

Question: `COc1ncc(N2CCc3ncnc(O[C@H]4CCN(C(=O)C5CCOCC5)C4)c3C2)cc1C#N` [Example 3, 2-Methoxy-5-{4-[(S)-1-(tetrahydro-pyran-4-carbonyl)-pyrrolidin-3-yloxy]-7,8-dihydro-5H-pyrido[4,3-d]pyrimidin-6-yl}-nicotinonitrile] was tested. Which IC50 (PI3K alpha) did it give?
Answer: 2390 nM

Question: And the IC50 (PI3K delta; enzymatic assay)?
Answer: 15 nM

Question: How did the IC50 (PI3K alpha) turn out when `O=C(C1CCOCC1)N1CC[C@H](Oc2ncnc3c2CN(c2cnc4ccccc4c2)CC3)C1` [Example 60, [(S)-3-(6-Quinolin-3-yl-5,6,7,8-tetrahydro-pyrido[4,3-d]pyrimidin-4-yloxy)-pyrrolidin-1-yl]-(tetrahydro-pyran-4-yl)-methanone] was run?
Answer: 3330 nM

Question: What about the IC50 (PI3K delta; enzymatic assay) of the same compound?
Answer: 45 nM

Question: How did the IC50 (PI3K alpha) turn out when `COc1ncc(N2CCc3ncnc(O[C@H]4CCN(C(=O)N5CCC(O)CC5)C4)c3C2)cc1C(F)(F)F` [Example 87, (4-Hydroxy-piperidin-1-yl)-{(S)-3-[6-(6-methoxy-5-trifluoromethyl-pyridin-3-yl)-5,6,7,8-tetrahydro-pyrido[4,3-d]pyrimidin-4-yloxy]-pyrrolidin-1-yl}-methanone] was run?
Answer: 452 nM

Question: What about the IC50 (PI3K delta; enzymatic assay) of the same compound?
Answer: 12 nM

Question: For `COc1ncc(N2CCc3ncnc(O[C@H]4CCN(c5ncccn5)C4)c3C2)cc1C(F)(F)F` [Example 66, 6-(6-Methoxy-5-trifluoromethyl-pyridin-3-yl)-4-((S)-1-pyrimidin-2-yl-pyrrolidin-3-yloxy)-5,6,7,8-tetrahydro-pyrido[4,3-d]pyrimidine], which IC50 (PI3K alpha) is on record?
Answer: 1280 nM

Question: And the IC50 (PI3K delta)?
Answer: 14 nM

Question: Which results are given for `COc1cc(N2CCc3ncnc(O[C@H]4CCN(C(=O)c5oc(C)nc5C)C4)c3C2)cnc1OC` [Example 25, {(S)-3-[6-(5,6-Dimethoxy-pyridin-3-yl)-5,6,7,8-tetrahydro-pyrido[4,3-d]pyrimidin-4-yloxy]-pyrrolidin-1-yl}-(2,4-dimethyl-oxazol-5-yl)-methanone]?
Answer: IC50 (PI3K alpha): 820 nM; IC50 (PI3K delta; enzymatic assay): 26 nM

Question: `COc1ncc(N2CCc3ncnc(O[C@H]4CCN(C(=O)c5cnco5)C4)c3C2)cc1C` [Example 12, {(S)-3-[6-(6-Methoxy-5-methyl-pyridin-3-yl)-5,6,7,8-tetrahydro-pyrido[4,3-d]pyrimidin-4-yloxy]-pyrrolidin-1-yl}-oxazol-5-yl-methanone] was tested. Which IC50 (PI3K alpha) did it give?
Answer: 952 nM

Question: And the IC50 (PI3K delta; enzymatic assay)?
Answer: 12 nM

Question: `COC(=O)N1CC[C@H](Oc2ncnc3c2CN(c2cnc(OC)c(C#N)c2)CC3)C1` [Example 90, (S)-3-[6-(5-cyano-6-methoxy-pyridin-3-yl)-5,6,7,8-tetrahydro-pyrido[4,3-d]pyrimidin-4-yloxy]-pyrrolidine-1-carboxylic acid methyl ester] was tested. Which IC50 (PI3K delta; enzymatic assay) did it give?
Answer: 38 nM

Question: How did the IC50 (PI3K delta; enzymatic assay) turn out when `COc1ncc(N2CCc3ncnc(N[C@H]4CCN(C(=O)[C@H]5CC[C@@H](OC)CC5)C4)c3C2)cc1C(F)(F)F` (single isomer, unassigned) [Example 73] was run?
Answer: 4 nM

Question: `COc1ncc(N2CCc3ncnc(O[C@H]4CCN(C(=O)N5CCN(C)CC5)C4)c3C2)cc1C(F)(F)F` [Example 85, {(S)-3-[6-(6-methoxy-5-trifluoromethyl-pyridin-3-yl)-5,6,7,8-tetrahydro-pyrido[4,3-d]pyrimidin-4-yloxy]-pyrrolidin-1-yl}-(4-methyl-piperazin-1-yl)-methanone] was tested. Which IC50 (PI3K delta; enzymatic assay) did it give?
Answer: 21 nM
